Experimental data reported in US7390923B2, “Propionamide derivatives useful as androgen receptor modulators” (Orion Corporation, priority 2003, dated 2008).

Assays:
androgen receptor (AR) = molecular target: T1, androgen receptor (AR) (Rattus norvegicus, UniProt P15207); assay: AR binding assay, competition with [3H]-mibolerone binding in rat ventral prostate cytosol; details: 1 nM [3H]-mibolerone, overnight at 0° C.
T1 construct: Ventral prostates were obtained form rats castrated 24 h prior to sacrifice; from tissue; host or cells: rat ventral prostate cytosol (castrated rats, charcoal-treated)
T1 sequence (P15207 1-902): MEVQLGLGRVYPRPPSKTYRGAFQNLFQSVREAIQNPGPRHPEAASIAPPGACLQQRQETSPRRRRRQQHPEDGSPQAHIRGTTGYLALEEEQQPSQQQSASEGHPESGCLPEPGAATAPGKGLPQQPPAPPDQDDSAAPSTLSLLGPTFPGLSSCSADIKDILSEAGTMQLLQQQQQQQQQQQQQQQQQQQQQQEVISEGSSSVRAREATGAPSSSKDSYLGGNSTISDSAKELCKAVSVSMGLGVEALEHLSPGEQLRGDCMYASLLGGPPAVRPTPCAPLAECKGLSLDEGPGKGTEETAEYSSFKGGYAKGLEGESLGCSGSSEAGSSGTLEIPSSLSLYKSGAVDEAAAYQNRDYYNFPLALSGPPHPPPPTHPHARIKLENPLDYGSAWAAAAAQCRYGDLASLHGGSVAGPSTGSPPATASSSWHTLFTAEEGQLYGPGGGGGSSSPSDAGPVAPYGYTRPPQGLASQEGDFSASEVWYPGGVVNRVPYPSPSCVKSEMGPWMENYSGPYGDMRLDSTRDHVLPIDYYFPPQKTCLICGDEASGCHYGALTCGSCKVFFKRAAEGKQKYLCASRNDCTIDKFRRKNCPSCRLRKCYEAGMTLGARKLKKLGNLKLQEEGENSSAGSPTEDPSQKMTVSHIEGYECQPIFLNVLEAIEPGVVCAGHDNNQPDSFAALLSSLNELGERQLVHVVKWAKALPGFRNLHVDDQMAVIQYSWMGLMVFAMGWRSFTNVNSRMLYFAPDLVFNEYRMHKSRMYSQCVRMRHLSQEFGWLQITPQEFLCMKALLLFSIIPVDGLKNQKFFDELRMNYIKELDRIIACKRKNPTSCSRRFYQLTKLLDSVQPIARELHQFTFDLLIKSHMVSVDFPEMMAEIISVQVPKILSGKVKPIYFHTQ
Method: Ventral prostates were obtained form rats castrated 24 h prior to sacrifice. Fresh prostate was minced and washed with Buffer A (Schilling and Liao, Prostate, 5:581-588, 1984). The minces were then homogenized in 3× volume of Buffer A containing protease inhibitors (Complete, Mini, EDTA-free Roche). The homogenate was centrifuged at 30000 g for 30 min. The resultant supernatants were treated with 1×volume of dextran-coated charcoal solution (12.5 g activated charcoal, 12.5 g dextran per liter of buffer A) to remove endogenous steroids. The samples were incubated for 5 min and centrifuged at 16000 g for 10 min. Aliquots of the charcoal-treated cytosol were taken for androgen receptor assays. All procedures were carried out at 0-4° C.
Cytosol androgen receptor concentration was determined as described (Isomaa et al., Endocrinology, 111: 833-843, 1982) with minor modifications. Cytosol preparations were prepared as described above, and bound and free steroids were separated by treatment with an equal volume of dextran-charcoal suspension for 5 min at 4° C. followed by centrifugation at 16000 g for 10 min. Bound radioactivity was determined by counting supernatant fractions in 1 ml of OptiPhase HiSafe3 or OptiPhase Supermix (PerkinElmer).
Cytosol preparations were labelled with 1 nM [^3H]-mibolerone overnight at 0° C. (total). To determine AR binding activity of the compounds of the present invention (test compounds), the ability of test compounds to compete with [^3H]7α,17α-dimethyl-17β-hydroxy-4-estren-3-one ([^3H]-mibolerone) binding was studied. 1 nM [^3H]-mibolerone and test compounds in two concentrations (0.2 and 2 uM) were incubated overnight at 0° C. To determine non-specific binding, parallel incubations were carried out using 1 nM concentration [^3H]-mibolerone with 500-fold molar excess of unlabelled testosterone. Two to four replicates were used for each sample. After incubation, bound and free steroids were separated as described above and bound radioactivity was determined. The ability of the test compounds to bind AR is reported as reduction in bound radioactivity obtained with 1 nM [^3H]-mibolerone. The results (% inhibition) were calculated as: % inhibition=100−(100×(averagetest compound/averagetotal)).

AR = molecular target: T2, AR (Rattus norvegicus, UniProt P15207); assay: AR agonism and antagonism in immature male rats, 3-day assay, relative organ weights
T2 sequence (P15207 1-902): T1 sequence (P15207 1-902)
Method: The title compound of Example 3, abbreviated here as compound A, was further studied in in vivo experiment. The agonism and antagonism of the compound with subcutaneous dosing was tested in immature male Spraque Dawley rat 3-day assay by analyzing the relative weights of ventral prostate, seminal vesicle, and levator ani-muscle. Testosterone propionate was used as a reference compound.
Testosterone propionate (abbreviated here TP) and compound A were first dissolved into DMSO and then into the vehicle sesame oil. Sprague-Dawley untreated male rats (18-19 days old) weighing about 50 g were used in the experiment. Rats were weighed and randomly distributed into five groups, with 5 animals per group (Table 1). Compound A (doses 2 and 20 mg/kg) and testosterone propionate (dose 5 mg/kg) were given subcutaneously (s.c.) into the neck/back of the animals at a constant volume of 100 microl dosing solution/animal/day. The animals were dosed once daily for three days, and clinical signs were recorded during dosing. At the end of the study, animals were weighed and anaesthetised by CO2 asphyxiation. Ventral prostate, seminal vesicles, and levator ani-muscle were dissected out, chilled, and weighed. For statistical analysis, the weights of all organs were normalized to body weights, and analyzed for statistical significant difference by single-factor ANOVA.
In the Figure, “a” means agonism, p<0.01 compared to vehicle group, “b” means antagonism, p<0.05 compared to testosterone group, bars represent mean±SEM.

[1] = 20 mg/kg s.c. once daily for three days, immature male rat
[2] = 5 mg/kg s.c. once daily for three days, immature male rat

Structure (SMILES) | inhibition at 0.2 µM (androgen receptor (AR); test compound 0.2 μM) [%] | inhibition at 2 µM (androgen receptor (AR); test compound 2.0 μM) [%] | relative weight of levator ani-muscle (AR; [1]) | relative weight of the prostate (AR; [1]) | antagonistic activity in seminal vesicle (AR; TP 5 mg/kg + compound A 20 mg/kg s.c., p<0.05 compared to testosterone group) | androgenic and anabolic activity (AR; s.c. 2 and 20 mg/kg, immature male rat, FIG. 1) | effect on the body weights (AR; s.c. once daily for three days, immature male rat, data not shown) | tissue selectivity compared with testosterone propionate (AR; s.c., immature male rat) | relative weight of levator ani-muscle (AR; [2]) | relative weight of seminal vesicle (AR; [2]) | relative weight of ventral prostate (AR; [2]) | effect on the body weights (AR; rat, in vivo, sc)
CC(=O)Nc1ccc(OC[C@](C)(O)C(=O)Nc2ccc([N+](=O)[O-])c(C)c2)cc1 [Example 3, (2S)-3-(4-Acetylaminophenoxy)-2-hydroxy-2-methyl-N-(3-methyl-4-nitrophenyl)propionamide] | 103 | 115 | clearly increased | only minimally | significant antagonistic activity | shows androgenic and anabolic activity | Neither testosterone propionate nor compound A had any effect | showed tissue selectivity | – | – | – | –
CCC(=O)O[C@H]1CC[C@H]2[C@@H]3CCC4=CC(=O)CC[C@]4(C)[C@H]3CC[C@]12C [testosterone propionate, Testosterone propionate, reference compound] | – | – | – | – | – | – | – | – | increased significantly | increased significantly | increased significantly | Neither testosterone propionate nor compound A had any effect
